From patent US20240294471A1, “ROS-RESPONSIVE CAPTOPRIL-CINNAMALDEHYDE PRODRUGS AND COMPOSITIONS AND METHODS THEREOF” (The University of Hong Kong, priority 2021, published 2024)

What was measured:
[1] = system: LPS-stimulated Raw264.7 cells; assay: Protein levels of TNF-α, IL-1β and IL-6 by ELISA; format: cell-based; settings: supernatant, 24 h, dose dependent, FIGS. 3A-3C
Description: The protein levels of TNF-α, IL-1β and IL-6 were determined by ELISA. Briefly, Raw 264.7 cells were seeded in 24-well plates. After a 24 h incubation, prodrugs were added to the cells at different concentrations and incubated for 1 h, and then the cells were treated with or without LPS (10 μg/mL) for another 24 h. The supernatants were collected for determination of protein levels according to the ELISA kit's instruction. Three replicate wells were used in this experiment.

[2] = system: LPS-stimulated Raw264.7 cells; assay: mRNA levels of proinflammatory cytokines by qRT-PCR; format: cell-based; settings: 24 h, dose dependent, FIGS. 4A-4C
Description: […] Briefly, Raw 264.7 cells were seeded in 12-well plates. After a 24 h incubation, prodrugs were added to the cells at different concentrations and incubated for 1 h, and then the cells were treated with or without LPS (10 μg/mL) for another 24 h. qRT-PCR experiments were measured according to the manufacturer's instruction. Three replicate wells were used in this experiment.

[3] = system: LPS-stimulated Raw 264.7 cells; assay: NO generation (nitrite in culture supernatant, Griess reagent); format: cell-based; settings: Raw264.7 cells, LPS 10 μg/mL, 24 h, dose-dependent, FIG. 2
Description: Nitrite levels, an index of cellular NO production, in culture supernatants of Raw 264.7 cells were determined using a modified Griess reagent. Briefly, Raw 264.7 cells were seeded in 24-well plates. After a 24 h incubation, prodrugs were added to the cells at different concentrations and incubated for 1 h, and then the cells were treated with or without LPS (10 μg/mL) for another 24 h. The supernatant was mixed with an equal volume of Griess reagent and incubated at room temperature for 15 min. The absorbance at 540 nm was measured. Three replicate wells were used in this experiment.

[4] = system: Raw 264.7 cells; assay: Cytotoxicity test (MTT assay); format: cell-based; settings: Raw264.7 cells, 24 h, with or without LPS (10 μg/mL), tested concentration range, FIG. 1
Description: The effect of the prodrug on the viability of Raw 264.7 cells was determined using the MTT assay. Briefly, Raw 264.7 cells were seeded in 24-well plates. After a 24 h incubation, prodrugs were added to the cells at different concentrations and incubated for 1 h, and then, the cells were treated with or without LPS (10 μg/mL) for another 24 h. Next, 50 μL of MTT solution (5 mg/mL) were added to each well and the cells were incubated for 3 h at 37° C. Then, 1 mL of DMSO were added to dissolve the MTT-formazan crystal. The absorbance at 570 nm and 630 nm were measured. Three replicate wells were used in this experiment.

[5] = ROS-responsiveness: HPLC monitoring of CAPT-CA degradation in the presence of H2O2; format: physicochemical; settings: CAPT-CA 160 μM, H2O2 40 mM
Description: HPLC spectra of CAPT, CA, CAPT-CA prodrug, and the degradation of CAPT-CA (160 μM) in the presence of H2O2 (40 mM) for different times were obtained. A C18 column was used. The mobile phase A was acetonitrile containing 0.1% TFA and mobile phase B was water containing 0.1% TFA. The elution procedure was shown as below: 0-5 min: 98% B→98% B; 5-15 min: 98% B→40% B; 15-17 min: 40% B→40% B. The flow rate was 1.5 mL/min. The detection wavelength was 220 nm.
To evaluate the ROS-responsiveness of CAPT-CA, high performance liquid chromatography (HPLC) has been employed to monitor the release of CAPT and CA after incubation of CAPT-CA with a ROS reagent (hydrogen peroxide, H2O2). The retention time of free CAPT, free CA and CAPT-CA was at 10.138 min, 13.275 min, 14.283 min, respectively.

## CC(CSC(/C=C/c1ccccc1)SCC(C)C(=O)N1CCCC1C(=O)O)C(=O)N1CCCC1C(=O)O (stereo not drawn) [CAPT-CA]
[1]
  protein levels of the cytokines (TNF-α, IL-1β, IL-6): significantly down-regulates
[2]
  mRNA levels of the cytokines (TNF-α, IL-6, IL-1β): significantly down-regulates
[3]
  NO generation resulting from LPS stimulation: significantly suppressed
[4]
  cytotoxicity of the prodrug: minimal
[5]; 4 h
  prodrug peak in HPLC after incubation with H2O2 (release of free CA and CAPT): prodrug peak decreases
[5]; 22 h
  prodrug peak in HPLC after incubation with H2O2: almost disappeared
